Measured values as given in patent US20060069132A1, “Azolecarboxamide herbicides” (priority 2004, published 2006).

Columns and labels:
Assay in all cases: Test C pre-/postemergence herbicide test
bermudagrass = assay type: in vivo, Cynodon dactylon
In short: (§1)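 Emerged plants at the 1- to 4-leaf stage (2–18 cm), or freshly planted seeds, received test chemicals in a non-phytotoxic solvent mixture with surfactant. Response was visually scored against controls after 12 to 14 days in the greenhouse, on a 0 (no effect) to 100 (complete control) scale.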

large crabgrass = assay type: in vivo, Digitaria sanguinalis; conditions: for Crabgrass, Large plant response rating: 500 g ai/ha
In short: as §1

giant foxtail = assay type: in vivo, Setaria faberi; conditions: for Foxtail, Giant plant response rating: 500 g ai/ha
In short: as §1

kochia = assay type: in vivo, Kochia scoparia; conditions: for Kochia plant response rating: 500 g ai/ha
In short: as §1

lambsquarters = assay type: in vivo, Chenopodium album; conditions: for Lambsquarters plant response rating: 500 g ai/ha
In short: as §1

soybean = assay type: in vivo, Glycine max; conditions: for Soybean plant response rating: 500 g ai/ha
In short: as §1

[1] = system: common (oilseed) sunflower; assay type: in vivo, Helianthus annuus; conditions: for Sunflower plant response rating: Preemergence, 500 g ai/ha, scale 0 to 100, 0 no effect, 100 complete control
Description: Seeds of plant species selected from bermudagrass (Cynodon dactylon (L.) Pers.), Surinam grass (Urochloa decumbens (Staph) R. D. Webster, previously named Brachiaria decumbens Stapf), cocklebur (Xanthium strumarium L.), corn (Zea mays L.), large crabgrass (Digitaria sanguinalis (L.) Scop.), woolly cupgrass (Eriochloa villosa (Thunb.) Kunth), giant foxtail (Setaria faberi Herrm.), goosegrass (Eleusine indica (L.) Gaertn.), johnsongrass (Sorghum halepense (L.) Pers.), kochia (Kochia scoparia (L.) Schrad.), lambsquarters (Chenopodium album L.), morningglory (Ipomoea coccinea L.), eastern black nightshade (Solanum ptycanthum Dunal), yellow nutsedge (Cyperus esculentus L.), pigweed (Amaranthus retroflexus L.), common ragweed (Ambrosia elatior L.), soybean (Glycine max (L.) Merr.), common (oilseed) sunflower (Helianthus annuus L.) and velvetleaf (Abutilon theophrasti Medik.) were planted and treated preemergence with test chemicals formulated in a non-phytotoxic solvent mixture which included a surfactant.
At the same time, plants selected from these crop and weed species and also winter barley (Hordeum vulgare L.), blackgrass (Alopecurus myosuroides Huds.), canarygrass (Phalaris minor Retz.), chickweed (Stellaria media (L.) Vill.), downy bromegrass (Bromus tectorum L.), green foxtail (Setaria viridis (L.) Beauv.), Italian ryegrass (Lolium multiflorum Lam.), wheat (Triticum aestivum L.), wild oat (Avenafatua L.) and windgrass (Apera spica-venti (L.) Beauv.) were treated with postemergence applications of some of the test chemicals formulated in the same manner. Plants ranged in height from 2 to 18 cm (1- to 4-leaf stage) for postemergence treatments. Plant species in the flooded paddy test consisted of rice (Oryza sativa), smallflower umbrella sedge (Cyperus difformis L.), ducksalad (Heteranthera limosa (Sw.) Willd.) and barnyardgrass (Echinochloa crus-galli (L.) Beauv.) grown to the 2-leaf stage for testing. Treated plants and controls were maintained in a greenhouse for 12 to 14 days, after which time all species were compared to controls and visually evaluated. Plant response ratings, summarized in Table C, are based on a scale of 0 to 100 where 0 is no effect and 100 is complete control. A dash (-) response means no test result.

[2] = 125 g ai/ha, scale 0 (no effect) to 100 (complete control), visual, 12 to 14 days, preemergence
[3] = 250 g ai/ha, scale 0 to 100 (0 no effect, 100 complete control), visual, 12 to 14 days, preemergence
[4] = Postemergence, 125 g ai/ha, scale 0 to 100, 0 no effect, 100 complete control
[5] = postemergence, 62 g ai/ha, scale 0 to 100
[6] = Postemergence, 250 g ai/ha, scale 0 to 100, 0 no effect, 100 complete control
[7] = Preemergence, scale 0 to 100, 0 no effect, 100 complete control
[8] = 250 g ai/ha, scale 0-100, preemergence
[9] = postemergence, 125 g ai/ha, scale 0 to 100
[10] = 62 g ai/ha, preemergence, scale 0 to 100

C#CCn1nc(C(C)(C)C)cc1C(=O)Nc1cccc(C(=O)NCC)c1 [Compound 50]
Plant response rating (0 = no effect, 100 = complete control), Bermudagrass (bermudagrass; 62 g ai/ha, preemergence): 0
Plant response rating, Bermudagrass (bermudagrass; [2]): 0
Plant response rating, Bermudagrass (bermudagrass; [3]): 0
Bermudagrass plant response rating (bermudagrass; Postemergence, 500 g ai/ha, scale 0 to 100): 40
Plant response rating, Bermudagrass (bermudagrass; [4]): 30
Bermudagrass plant response rating (bermudagrass; Postemergence, 250 g ai/ha, scale 0 to 100): 30
Bermudagrass plant response rating (bermudagrass; Preemergence, 500 g ai/ha, scale 0 to 100, 0 no effect, 100 complete control): 10
Plant response rating, Bermudagrass (bermudagrass; [5]): 0
Plant response rating (0 = no effect, 100 = complete control), Crabgrass, Large (large crabgrass; 62 g ai/ha, preemergence): 0
Plant response rating, Crabgrass, Large (large crabgrass; [2]): 0
Plant response rating, Crabgrass, Large (large crabgrass; [3]): 20
Crabgrass, Large plant response rating (large crabgrass; Postemergence, scale 0 to 100): 0
Plant response rating, Crabgrass, Large (large crabgrass; [4]): 0
Plant response rating, Crabgrass, Large (large crabgrass; [6]): 0
Crabgrass, Large plant response rating (large crabgrass; [7]): 80
Plant response rating, Crabgrass, Large (large crabgrass; [5]): 0
Plant response rating (0 = no effect, 100 = complete control), Foxtail, Giant (giant foxtail; 62 g ai/ha, preemergence): 0
Plant response rating, Foxtail, Giant (giant foxtail; [2]): 0
Plant response rating, Foxtail, Giant (giant foxtail; [3]): 0
Foxtail, Giant plant response rating (giant foxtail; Postemergence, scale 0 to 100): 0
Plant response rating, Foxtail, Giant (giant foxtail; [4]): 0
Plant response rating, Foxtail, Giant (giant foxtail; [6]): 0
Foxtail, Giant plant response rating (giant foxtail; [7]): 10
Plant response rating, Foxtail, Giant (giant foxtail; [5]): 0
Plant response rating (0 = no effect, 100 = complete control), Kochia (kochia; 62 g ai/ha, preemergence): 30
Plant response rating, Kochia (kochia; [2]): 85
Plant response rating, Kochia (kochia; [3]): 100
Kochia plant response rating (kochia; Postemergence, scale 0 to 100): 10
Plant response rating, Kochia (kochia; [4]): 10
Plant response rating, Kochia (kochia; [6]): 10
Kochia plant response rating (kochia; [7]): 100
Plant response rating, Kochia (kochia; [5]): 0
Plant response rating (0 = no effect, 100 = complete control), Lambsquarters (lambsquarters; 62 g ai/ha, preemergence): 85
Plant response rating, Lambsquarters (lambsquarters; [2]): 85
Plant response rating, Lambsquarters (lambsquarters; [3]): 100
Lambsquarters plant response rating (lambsquarters; Postemergence, scale 0 to 100): 0
Plant response rating, Lambsquarters (lambsquarters; [6]): 0
Lambsquarters plant response rating (lambsquarters; [7]): 100
Plant response rating, Lambsquarters (lambsquarters; [5]): 0
Plant response rating (0 = no effect, 100 = complete control), Soybean (soybean; 62 g ai/ha, preemergence): 0
Plant response rating, Soybean (soybean; [2]): 0
Plant response rating, Soybean (soybean; [3]): 0
Soybean plant response rating (soybean; Postemergence, scale 0 to 100): 100
Plant response rating, Soybean (soybean; [6]): 100
Soybean plant response rating (soybean; [7]): 0
Plant response rating, Soybean (soybean; [5]): 100
Plant response rating (0 = no effect, 100 = complete control), Sunflower ([1]; 62 g ai/ha, preemergence): 0
Plant response rating, Sunflower [1, 2]: 0
Plant response rating, Sunflower [1, 3]: 0
Sunflower plant response rating [1]: 0

CCc1nn(C(C)(C)C)cc1C(=O)Nc1cccc(C(=O)N(CC)CC)c1 [Compound 182, N-[3-[(diethylamino)carbonyl]phenyl]-1-(1,1-dimethylethyl)-3-ethyl-1H-pyrazole-4-carboxamide]
pest or weed control at 62 g/ha (bermudagrass; Cynodon dactylon, pre-emergence, 312 h, 62 g ai/ha, preemergence, scale 0 to 100, 0 no effect, 100 complete control, read-out: Plant response rating, Bermudagrass): 20%
pest or weed control at 125 g/ha (bermudagrass; Cynodon dactylon, pre-emergence, 312 h, 125 g ai/ha, scale 0 (no effect) to 100 (complete control), visual, 12 to 14 days, read-out: Plant response rating, Bermudagrass): 75%
pest or weed control at 250 g/ha (bermudagrass; Cynodon dactylon, pre-emergence, 312 h, 250 g ai/ha, scale 0 to 100 (0 no effect, 100 complete control), visual, 12 to 14 days, read-out: Plant response rating, Bermudagrass): 90%
pest or weed control at 500 g/ha (bermudagrass; Cynodon dactylon, pre-emergence, 312 h, Preemergence, 500 g ai/ha, scale 0 to 100, 0 no effect, 100 complete control, read-out: Bermudagrass plant response rating): 95%
pest or weed control at 62 g/ha (large crabgrass; Digitaria sanguinalis, pre-emergence, 312 h, 62 g ai/ha, preemergence, scale 0 to 100, read-out: Plant response rating, Crabgrass, Large): 0%
pest or weed control at 125 g/ha (large crabgrass; Digitaria sanguinalis, pre-emergence, 312 h, 125 g ai/ha, scale 0 (no effect) to 100 (complete control), visual, 12 to 14 days, read-out: Plant response rating, Crabgrass, Large): 25%
pest or weed control at 250 g/ha (large crabgrass; Digitaria sanguinalis, pre-emergence, 312 h, 250 g ai/ha, scale 0 to 100 (0 no effect, 100 complete control), visual, 12 to 14 days, read-out: Plant response rating, Crabgrass, Large): 75%
Crabgrass, Large plant response rating (large crabgrass; [7]): 100
Foxtail, Giant plant response rating (giant foxtail; [7]): 60
pest or weed control at 62 g/ha (giant foxtail; Setaria faberi, pre-emergence, 312 h, 62 g ai/ha, preemergence, scale 0 to 100, read-out: Plant response rating, Foxtail, Giant): 0%
pest or weed control at 125 g/ha (giant foxtail; Setaria faberi, pre-emergence, 312 h, 125 g ai/ha, scale 0 (no effect) to 100 (complete control), visual, 12 to 14 days, read-out: Plant response rating, Foxtail, Giant): 0%
pest or weed control at 250 g/ha (giant foxtail; Setaria faberi, pre-emergence, 312 h, 250 g ai/ha, scale 0 to 100 (0 no effect, 100 complete control), visual, 12 to 14 days, read-out: Plant response rating, Foxtail, Giant): 60%
pest or weed control at 62 g/ha (kochia; Bassia scoparia, pre-emergence, 62 g ai/ha, preemergence, scale 0 to 100, read-out: Plant response rating, Kochia): 0%
pest or weed control at 125 g/ha (kochia; Bassia scoparia, pre-emergence, 125 g ai/ha, scale 0 (no effect) to 100 (complete control), visual, 12 to 14 days, read-out: Plant response rating, Kochia): 60%
Kochia plant response rating (kochia; [7]): 90
pest or weed control at 62 g/ha (lambsquarters; Chenopodium album, pre-emergence, 62 g ai/ha, preemergence, scale 0 to 100, read-out: Plant response rating, Lambsquarters): 25%
pest or weed control at 125 g/ha (lambsquarters; Chenopodium album, pre-emergence, 125 g ai/ha, scale 0 (no effect) to 100 (complete control), visual, 12 to 14 days, read-out: Plant response rating, Lambsquarters): 95%
Lambsquarters plant response rating (lambsquarters; [7]): 95
plant injury at 62 g/ha (soybean; Glycine max, pre-emergence, 62 g ai/ha, preemergence, scale 0 to 100, read-out: Plant response rating, Soybean): 0%
plant injury at 125 g/ha (soybean; Glycine max, pre-emergence, 125 g ai/ha, scale 0 (no effect) to 100 (complete control), visual, 12 to 14 days, read-out: Plant response rating, Soybean): 0%
Soybean plant response rating (soybean; [7]): 15
pest or weed control at 62 g/ha ([1]; Helianthus annuus, pre-emergence, 62 g ai/ha, preemergence, scale 0 to 100, read-out: Plant response rating, Sunflower): 0%
pest or weed control at 125 g/ha ([1]; Helianthus annuus, pre-emergence, 125 g ai/ha, scale 0 (no effect) to 100 (complete control), visual, 12 to 14 days, read-out: Plant response rating, Sunflower): 0%
Sunflower plant response rating [1]: 0

CCOC(=O)c1cccc(NC(=O)c2nn(C(C)(C)CC)nc2CC)c1 [Compound 375]
Plant response rating, Bermudagrass (bermudagrass; 31 g ai/ha, scale 0 to 100, 0 no effect, 100 complete control, last section of Table C (species set of preemergence test)): 95
Plant response rating, Bermudagrass (bermudagrass; 62 g ai/ha, preemergence, scale 0 to 100, 0 no effect, 100 complete control): 100
Plant response rating (0 = no effect, 100 = complete control), Bermudagrass (bermudagrass; 125 g ai/ha, preemergence): 100
Plant response rating, Bermudagrass (bermudagrass; [8]): 100
Plant response rating, Bermudagrass (bermudagrass; [6]): 60
Plant response rating, Bermudagrass (bermudagrass; [9]): 30
Plant response rating, Bermudagrass (bermudagrass; postemergence, 31 g ai/ha, scale 0 to 100): 5
Plant response rating, Bermudagrass (bermudagrass; [5]): 20
Plant response rating, Crabgrass, Large (large crabgrass; [10]): 60
Plant response rating (0 = no effect, 100 = complete control), Crabgrass, Large (large crabgrass; 125 g ai/ha, preemergence): 70
Plant response rating, Crabgrass, Large (large crabgrass; [8]): 100
Plant response rating, Crabgrass, Large (large crabgrass; [6]): 20
Plant response rating, Crabgrass, Large (large crabgrass; [9]): 20
Plant response rating, Crabgrass, Large (large crabgrass; [5]): 5
Plant response rating, Foxtail, Giant (giant foxtail; [10]): 70
Plant response rating (0 = no effect, 100 = complete control), Foxtail, Giant (giant foxtail; 125 g ai/ha, preemergence): 80
Plant response rating, Foxtail, Giant (giant foxtail; [6]): 60
Plant response rating, Foxtail, Giant (giant foxtail; [9]): 45
Plant response rating, Foxtail, Giant (giant foxtail; [5]): 40
Plant response rating, Kochia (kochia; [10]): 80
Plant response rating (0 = no effect, 100 = complete control), Kochia (kochia; 125 g ai/ha, preemergence): 100
Plant response rating, Kochia (kochia; [8]): 100
Plant response rating, Kochia (kochia; [6]): 90
Plant response rating, Kochia (kochia; [9]): 85
Plant response rating, Kochia (kochia; [5]): 70
Plant response rating, Lambsquarters (lambsquarters; [10]): 5
Plant response rating (0 = no effect, 100 = complete control), Lambsquarters (lambsquarters; 125 g ai/ha, preemergence): 10
Plant response rating, Lambsquarters (lambsquarters; [8]): 90
Plant response rating, Lambsquarters (lambsquarters; [9]): 40
Plant response rating, Lambsquarters (lambsquarters; [5]): 10
Plant response rating, Soybean (soybean; [10]): 0
Plant response rating (0 = no effect, 100 = complete control), Soybean (soybean; 125 g ai/ha, preemergence): 0
Plant response rating, Soybean (soybean; [8]): 0
Plant response rating, Sunflower [1, 10]: 0
Plant response rating (0 = no effect, 100 = complete control), Sunflower ([1]; 125 g ai/ha, preemergence): 0
Plant response rating, Sunflower [1, 8]: 0
